system: not listed separately; assay: Nicotine-lethality inhibiting effect in mice, oral (method of Stone); format: in vivo; conditions: mouse, in vivo, LD50 and ED50 in mice, read-out: Therapeutic index
Description: (§1) The nicotine-lethality inhibiting effect was determined on mice by the method of Stone [C. A. Stone et al.: Arch. Intern.

Row | SMILES | selectivity ratio
1 | CC(CON=C1CCCCCCCCCCC1)CN(C)C (racemic) [Example 4, D,L-1-(3'-Dimethylamino-2'-methylpropoxyimino)cyclododecane] | 14.8
2 | CN(C)CCCON=C1CCCCCCCCCCC1 [Example 1, 1-(Dimethylamino-propoxyimino)cyclododecane] | 14.4
3 | CN(C)CCON=C1CCCCCCCCCCC1 [Example 2, 1-(Dimethylamino-ethoxyimino)cyclododecane] | 27.9
4 | CC(C)N(CCON=C1CCCCCCCCCCC1)C(C)C [Example 5, 1-(Diisopropylamino-ethoxyimino)cyclododecane] | 80
5 | c1ccc(CN2CCN(CCCON=C3CCCCCCCCCCC3)CC2)cc1 [Example 6, 1-(N-Benzylpiperazinyl-propoxyimino)cyclododecane] | 5
6 | CN1CCN(CCCON=C2CCCCCCCCCCC2)CC1 [Example 7, 1-(N-methylpiperazinyl-propoxyimino)cyclododecane] | 16.2
7 | CCN(CC)CC(C)CON=C1CCCCCCCCCCC1 (stereo not shown) [Example 11, 1-(3'-Diethylamino-2'-methyl-propoxyimino)cyclododecane] | 5
8 | CC(C)N(CCCON=C1CCCCCCCCCCC1)C(C)C [Example 12, 1-(Diisopropylamino-propoxyimino)cyclododecane] | 5

system: nicotine-lethality; assay: as above; format: in vivo; conditions: Mus musculus, nicotine-lethality inhibition, mice, groups of ten animals
Description: as §1

Row | SMILES | ED50 [mg/kg]
9 | CC(CON=C1CCCCCCCCCCC1)CN(C)C (racemic) [Example 4, D,L-1-(3'-Dimethylamino-2'-methylpropoxyimino)cyclododecane] | 46
10 | OC(CCN1CCCCC1)(c1ccccc1)C1CCCCC1 (stereo not shown) [Artane, 1-cyclohexyl-1-phenyl-3-piperidino-propane-1-ol, reference compound] | 40
11 | CN(C)CCCON=C1CCCCCCCCCCC1 [Example 1, 1-(Dimethylamino-propoxyimino)cyclododecane] | 39
12 | CN(C)CCON=C1CCCCCCCCCCC1 [Example 2, 1-(Dimethylamino-ethoxyimino)cyclododecane] | 28
13 | CC(C)N(CCON=C1CCCCCCCCCCC1)C(C)C [Example 5, 1-(Diisopropylamino-ethoxyimino)cyclododecane] | 10
14 | c1ccc(CN2CCN(CCCON=C3CCCCCCCCCCC3)CC2)cc1 [Example 6, 1-(N-Benzylpiperazinyl-propoxyimino)cyclododecane] | 180
15 | CN1CCN(CCCON=C2CCCCCCCCCCC2)CC1 [Example 7, 1-(N-methylpiperazinyl-propoxyimino)cyclododecane] | 68
16 | CCN(CC)CC(C)CON=C1CCCCCCCCCCC1 (stereo not shown) [Example 11, 1-(3'-Diethylamino-2'-methyl-propoxyimino)cyclododecane] | 80
17 | CC(C)N(CCCON=C1CCCCCCCCCCC1)C(C)C [Example 12, 1-(Diisopropylamino-propoxyimino)cyclododecane] | 130

system: isolated rat ileum; assay: Spasmolytic effect on smooth muscle, isolated rat ileum (method of Brock), papaverine as reference; conditions: relative to papaverine
Description: The spasmolytic effect on smooth muscle was determined on isolated rat ileum according to the method of Brock et al. [H. Brock, J. Ceks, D. Lorenz: Arch. Exper. Path. u. Pharmacol. 215, 492/1952/] by using papaverine as the reference substance. In order to characterize the efficiency of the individual compounds their relative effect with respect to papaverine are enumerated in Table 2 below.

Row | SMILES | Relative efficiency
18 | CC(CON=C1CCCCCCCCCCC1)CN(C)C (racemic) [Example 4, D,L-1-(3'-Dimethylamino-2'-methylpropoxyimino)cyclododecane] | 4.1
19 | CN(C)CCCON=C1CCCCCCCCCCC1 [Example 1, 1-(Dimethylamino-propoxyimino)cyclododecane] | 1.4
20 | c1ccc(CN2CCN(CCCON=C3CCCCCCCCCCC3)CC2)cc1 [Example 6, 1-(N-Benzylpiperazinyl-propoxyimino)cyclododecane] | 0.9
21 | CCN(CC)CCCON=C1CCCCCCCCCCC1 [Example 10, 1-(Diethylamino-propoxyimino)cyclododecane] | 2.9
22 | CCN(CC)CC(C)CON=C1CCCCCCCCCCC1 (stereo not shown) [Example 11, 1-(3'-Diethylamino-2'-methyl-propoxyimino)cyclododecane] | 2.6
23 | COc1ccc(Cc2nccc3cc(OC)c(OC)cc23)cc1OC [Papaverine, reference compound] | 1.0

system: ischiadic nerve (N. ischiadieus); assay: Local anaesthetizing effect on the ischiadic nerve of rats (method of Truant), Lidocaine as reference; format: in vivo; conditions: 0.25% concentration
Description: The local anaesthetizing effect was investigated on the ischiadic nerve (N. ischiadieus) of rats by the method of Truant [A. P. Truant, d'Amato cited in A. P. Truant, S. Wiedling: Acta Chirurg. Scand. 116, 351 (1958)], by using Lidocaine as the reference substance. The number of animals showing the characteristic motoric paralysis and the duration of the effect were recorded. The relative efficiency with respect to Lidocaine and the duration of the effect observed on applying a 0.25% and 0.5% concentration are presented in Table 3.

Row | SMILES | Duration of effect [min]
24 | CC(CON=C1CCCCCCCCCCC1)CN(C)C (racemic) [Example 4, D,L-1-(3'-Dimethylamino-2'-methylpropoxyimino)cyclododecane] | 32
25 | CN(C)CCCON=C1CCCCCCCCCCC1 [Example 1, 1-(Dimethylamino-propoxyimino)cyclododecane] | 45
26 | CN(C)CCON=C1CCCCCCCCCCC1 [Example 2, 1-(Dimethylamino-ethoxyimino)cyclododecane] | 23
27 | CC(C)N(CCON=C1CCCCCCCCCCC1)C(C)C [Example 5, 1-(Diisopropylamino-ethoxyimino)cyclododecane] | 31
28 | c1ccc(CN2CCN(CCCON=C3CCCCCCCCCCC3)CC2)cc1 [Example 6, 1-(N-Benzylpiperazinyl-propoxyimino)cyclododecane] | 60
29 | CCN(CC)CCCON=C1CCCCCCCCCCC1 [Example 10, 1-(Diethylamino-propoxyimino)cyclododecane] | 76
30 | CCN(CC)CC(C)CON=C1CCCCCCCCCCC1 (stereo not shown) [Example 11, 1-(3'-Diethylamino-2'-methyl-propoxyimino)cyclododecane] | 151
31 | CC(C)N(CCCON=C1CCCCCCCCCCC1)C(C)C [Example 12, 1-(Diisopropylamino-propoxyimino)cyclododecane] | 77
32 | CCN(CC)CC(=O)Nc1c(C)cccc1C [Lidocaine, reference compound] | 24

same assay, conditions: 0.5% concentration

Row | SMILES | Duration of effect [min]
33 | CC(CON=C1CCCCCCCCCCC1)CN(C)C (racemic) [Example 4, D,L-1-(3'-Dimethylamino-2'-methylpropoxyimino)cyclododecane] | 105
34 | CN(C)CCCON=C1CCCCCCCCCCC1 [Example 1, 1-(Dimethylamino-propoxyimino)cyclododecane] | 95
35 | CN(C)CCON=C1CCCCCCCCCCC1 [Example 2, 1-(Dimethylamino-ethoxyimino)cyclododecane] | 57
36 | CC(C)N(CCON=C1CCCCCCCCCCC1)C(C)C [Example 5, 1-(Diisopropylamino-ethoxyimino)cyclododecane] | 60
37 | c1ccc(CN2CCN(CCCON=C3CCCCCCCCCCC3)CC2)cc1 [Example 6, 1-(N-Benzylpiperazinyl-propoxyimino)cyclododecane] | 134
38 | CCN(CC)CCCON=C1CCCCCCCCCCC1 [Example 10, 1-(Diethylamino-propoxyimino)cyclododecane] | 104
39 | CCN(CC)CC(C)CON=C1CCCCCCCCCCC1 (stereo not shown) [Example 11, 1-(3'-Diethylamino-2'-methyl-propoxyimino)cyclododecane] | 240
40 | CC(C)N(CCCON=C1CCCCCCCCCCC1)C(C)C [Example 12, 1-(Diisopropylamino-propoxyimino)cyclododecane] | 240
41 | CCN(CC)CC(=O)Nc1c(C)cccc1C [Lidocaine, reference compound] | 28

same assay, conditions: local anaesthesia, relative to Lidocaine

Row | SMILES | Relative efficiency
42 | CC(CON=C1CCCCCCCCCCC1)CN(C)C (racemic) [Example 4, D,L-1-(3'-Dimethylamino-2'-methylpropoxyimino)cyclododecane] | 0.63
43 | CN(C)CCCON=C1CCCCCCCCCCC1 [Example 1, 1-(Dimethylamino-propoxyimino)cyclododecane] | 0.77
44 | CN(C)CCON=C1CCCCCCCCCCC1 [Example 2, 1-(Dimethylamino-ethoxyimino)cyclododecane] | 0.67
45 | CC(C)N(CCON=C1CCCCCCCCCCC1)C(C)C [Example 5, 1-(Diisopropylamino-ethoxyimino)cyclododecane] | 0.71
46 | c1ccc(CN2CCN(CCCON=C3CCCCCCCCCCC3)CC2)cc1 [Example 6, 1-(N-Benzylpiperazinyl-propoxyimino)cyclododecane] | 0.52
47 | CCN(CC)CCCON=C1CCCCCCCCCCC1 [Example 10, 1-(Diethylamino-propoxyimino)cyclododecane] | 2.00
48 | CCN(CC)CC(C)CON=C1CCCCCCCCCCC1 (stereo not shown) [Example 11, 1-(3'-Diethylamino-2'-methyl-propoxyimino)cyclododecane] | 1.86
49 | CC(C)N(CCCON=C1CCCCCCCCCCC1)C(C)C [Example 12, 1-(Diisopropylamino-propoxyimino)cyclododecane] | 1.68
50 | CCN(CC)CC(=O)Nc1c(C)cccc1C [Lidocaine, reference compound] | 1.0

system: not listed separately; assay: in vivo; conditions: mouse, mice, oral

Row | SMILES | LD50 [mg/kg]
51 | CC(CON=C1CCCCCCCCCCC1)CN(C)C (racemic) [Example 4, D,L-1-(3'-Dimethylamino-2'-methylpropoxyimino)cyclododecane] | 680
52 | CN(C)CCCON=C1CCCCCCCCCCC1 [Example 1, 1-(Dimethylamino-propoxyimino)cyclododecane] | 560
53 | CN(C)CCON=C1CCCCCCCCCCC1 [Example 2, 1-(Dimethylamino-ethoxyimino)cyclododecane] | 780
54 | CC(C)N(CCON=C1CCCCCCCCCCC1)C(C)C [Example 5, 1-(Diisopropylamino-ethoxyimino)cyclododecane] | 800
55 | c1ccc(CN2CCN(CCCON=C3CCCCCCCCCCC3)CC2)cc1 [Example 6, 1-(N-Benzylpiperazinyl-propoxyimino)cyclododecane] | 900
56 | CN1CCN(CCCON=C2CCCCCCCCCCC2)CC1 [Example 7, 1-(N-methylpiperazinyl-propoxyimino)cyclododecane] | 1100
57 | CCN(CC)CC(C)CON=C1CCCCCCCCCCC1 (stereo not shown) [Example 11, 1-(3'-Diethylamino-2'-methyl-propoxyimino)cyclododecane] | 400
58 | CC(C)N(CCCON=C1CCCCCCCCCCC1)C(C)C [Example 12, 1-(Diisopropylamino-propoxyimino)cyclododecane] | 650
